Test results reported in US10464939B2, “Deuterated triazolopyridazine as a kinase modulator” (Janssen Pharmaceutica NV, priority 2014, dated 2019).
Read-outs that look alike come from different tables or passages of the source.

Assays:
[1] = Pre-clinical toxicity tests of compound A in rat; format: in vivo
Description: (§1) [drawing 2] was explored in a phase I, first-in-human trial. […] Extensive additional pre-clinical experiments were performed to understand the nature of the renal effects. Metabolism data pointed into the direction of the rabbit to be a suitable toxicology species.

[2] = Pre-clinical toxicity tests of compound A in dog; format: in vivo
Description: as §1

[3] = Toxicology study of compound A in rabbit; format: in vivo
Description: as §1

[4] = system: EBC1; test: Proliferation assay with Alamar blue, EBC-1 cells; format: cell-based; conditions: Homo sapiens, EBC-1, 96 h, 4 days incubation
Description: (§2) Inhibition of Proliferation of Cancer Cells Carrying Met Amplification and Dependent on Met Signaling by the Compound of Formula (I)
(§3) Proliferation Assay with Alamar Blue
(§4) Cells were seeded out in a 96-well plate in 180 μl growth medium. Depending on the growth curve test the amount of cells per well was different for each cell line. The cells were incubated overnight in an incubator at 37° C. in a humidified 5% CO2 atmosphere. The next day: The compound plate was prepared and 4 μl of compound was added to 196 μl of pre-warmed medium. 20 μl of this was added to 180 μl of cells. This was incubated for 4 days after adding the compound at 37° C. in a humidified 5% CO2 atmosphere. After the 4 days 40 μl of Alamar blue solution was added. This was incubated at 37° C. in a humidified 5% CO2 atmosphere for 4 hours (depending on the cell line this was tested before at different hours of incubation during the growth curve test). After the 4 hours the fluorescence was measured at excitation 530 nm, emission 590 nm. The fluorescence of control (DMSO treatment) was taken as 100% and the fluorescence of cells incubated with compounds was calculated against the control in %. So a dose response curve could be made and a IC50 could be calculated.

[5] = In vivo pharmacokinetic determination of compound (I), compound A and their metabolites in plasma; design: species or system New Zealand White Rabbits; conditions: both sexes, New Zealand White, male and female rabbit; for AUC(0-inf) / AUC(0-t) / Cmax / Tmax / MRT: rabbit, po, 10 mg/kg; for MRT: read-out: MRT (mean residence time)
Text: In vivo pharmacokinetic determination of compound (I), compound A and their metabolites in New Zealand White Rabbits.
Male New Zealand rabbits (Crl: KBL (NZW), Charles River, France) and female New Zealand rabbits (NZW INRA A1077, Centre Lago) were used. Per compound (compound of formula (I) and compound A) one male and two female rabbits were used with a mean weight of 2.6±0.2 kg. A complete plasma concentration time-profile was obtained from each individual animal. Standard diet and tap water were available ad libitum. Compound of formula (I) and compound A were both dissolved in a 10% (w/v) SBE-B-CD (sulfobutyl ether-beta-cyclodextrin) research grade (Captisol) solution at a final concentration of 1 mg/ml. HCl and PVP K30 were added to facilitate dissolution of the compounds. After total dissolution, the pH was brought up to 2.6/2.7 with NaOH. The formulations were stored at room temperature, protected from light and analysed quantitatively with LC-MS/MS on the day of preparation. Stability of the formulations was checked on the day of dosing. Animals were dosed orally by gavage at 10 ml/kg to obtain a final dose of 10 mg/kg. From each individual dosed animal, blood samples were taken at 30 minutes, 1, 2, 4, 7 and 24 hours after oral administration. Blood was collected by multiple sampling from a lateral ear vein into Multivette® 600 K3E tubes (Sarstedt). Samples were placed immediately on melting ice and plasma was obtained following centrifugation at 4° C. for 10 minutes at approximately 1900×g. All samples were shielded from daylight and stored at ≤−18° C. prior to analysis. Plasma samples were analysed for compound (I), compound A, metabolite 1, metabolite 2, N-desmethyl metabolite 3 (which was calculated on the curve of N-desmethyl metabolite 4) and N-desmethyl metabolite 4 using a qualified research LC-MS/MS method. The key analytical performance (linearity, upper and lower limit of quantification, accuracy and precision) of the method was reported together with the plasma concentrations. The lower limit of quantification (LLOQ) for plasma was 1.00 ng/ml for all compounds. A limited pharmacokinetic analysis was performed using Phoenix™ Professional (Version 6.2.1). A non-compartmental analysis using the lin/log trapezoidal rule with lin/log interpolation was used for all data.

[6] = system: SNU-5; test: Proliferation assay with Alamar blue, Snu-5 cells; format: cell-based; conditions: Homo sapiens, 96 h, 4 days incubation
Description: as §2, §3, §4

[7] = Phase I, first-in-human trial of compound A; format: in vivo
Description: The safety, pharmacokinetics, pharmacodynamics and initial efficacy of the potent and selective c-Met inhibitor with the following structure
as §1

[8] = biological target: T1, OCT2 (SLC22A2) (Homo sapiens, UniProt O15244); test: cell-based; format: cell-based
T1 construct: host or cells: Chinese Hamster Ovary (CHO) cells stably transfected with OCT2
T1 sequence (O15244 1-555): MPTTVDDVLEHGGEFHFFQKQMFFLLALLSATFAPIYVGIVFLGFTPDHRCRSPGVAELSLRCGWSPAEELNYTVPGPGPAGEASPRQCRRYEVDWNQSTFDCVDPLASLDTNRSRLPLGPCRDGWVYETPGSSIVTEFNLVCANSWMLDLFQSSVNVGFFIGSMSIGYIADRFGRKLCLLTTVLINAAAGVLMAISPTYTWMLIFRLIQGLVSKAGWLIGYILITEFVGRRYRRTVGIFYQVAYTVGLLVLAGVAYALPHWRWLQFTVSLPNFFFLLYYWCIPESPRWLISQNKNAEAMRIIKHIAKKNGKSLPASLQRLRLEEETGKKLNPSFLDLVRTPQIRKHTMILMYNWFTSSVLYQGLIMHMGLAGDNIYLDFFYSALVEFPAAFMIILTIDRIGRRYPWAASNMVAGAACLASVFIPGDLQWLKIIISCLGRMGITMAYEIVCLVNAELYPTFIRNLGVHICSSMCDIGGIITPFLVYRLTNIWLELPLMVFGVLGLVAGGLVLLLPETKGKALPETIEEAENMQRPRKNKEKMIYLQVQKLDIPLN
Description: This was tested using Chinese Hamster Ovary (CHO) cells, parental or stably transfected with OCT2. ^14C-Metformin was used as OCT2 substrate.
CHO cell lines, parental and stably transfected with OCT2 were obtained from Solvo Biotechnology (Hungary).
CHO cells were cultured in DMEM-F12 (Dulbecco's Modified Eagle Medium) supplemented with 0.03 mg/mL L-Proline, 1% L-Glutamine, penicillin (50-100 U/mL), streptomycin (50-100 μg/mL) and 10% (v/v) foetal calf or bovine serum (FCS) further referred to as “CHO culture medium”.
If needed, non-radiolabeled and radio-labeled compounds were mixed to obtain the proper chemical and radioactive concentration. Proper solvent controls were included.
Both, CHO parental and OCT2 cells were seeded into 24 well plates (1 mL/well, 400 000 cells/well) in CHO culture medium.
Transport experiments were performed in Hank's Balanced Salt Solution^+Ca,+Mg (HBSS^+/+) supplemented with 10 mM HEPES at pH 7.4. All media added to the cells and plates were kept at 37° C.
Before the incubation, the cells in each well were washed twice with 1 mL HBSS^+/++10 mM Hepes pH 7.4 at 37° C. Next, the incubation medium, containing reference substrate and the inhibitors (or inhibitor solvent) was added (250 μL/well).
At the time of dose administration (0 min), 150 μL of the dosing solution was sampled in triplicate for determination of initial concentrations by Liquid Scintillation Counting (LSC). During the incubation period, the plates were kept at 37° C.
To stop the reaction, 1.5 mL ice-cold HBSS^+/+ was added to each well and the liquids were aspirated. Again, to each well 2 mL ice-cold HBSS^+/+ was added and aspirated while keeping the plate angled. Following aspiration of the last well, all the wells were aspirated again taking care of not touching the cells.
To lyse the cells, 250 μL of Mammalian Protein Extraction Reagent (M-PER) lysis buffer was added to each well and the plates were shaken for at least 10 minutes (400 rpm). For LSC, a 150 μL sample/well was taken and for protein analysis a 25 μL sample/well. […]

[9] = system: aldehyde oxidase / CYP450; test: Metabolisation of compound of formula (I) compared to compound A
Text: This may decrease renal toxicity.
In case of the present compound of formula (I) more of the N-desmethyl metabolite with the following structure is formed

[10] = system: CHO OCT2 cells; test: Cytotoxicity test (PrestoBlue viability), CHO OCT2 cells; format: cell-based, Chinese Hamster; conditions: after 1 minute of incubation, compound of formula (I) 100 μM, Triton X-100 1%
Description: (§5) Cytotoxicity of the compound of formula (I) was determined at 100 μM, and this in both CHO parental and OCT2 cells. Also a 1% Triton-X100 condition was included, as a positive control cytotoxic reagent. After 1 minute of incubation the supernatant was aspirated, the dry cells washed twice with 1 mL HBSS^+/++10 mM Hepes pH 7.4 (37° C.). After aspiration of the buffer, a 1/10 dilution of the PrestoBlue Viability Reagent (Life Technologies) in HBSS^+/++10 mM Hepes pH 7.4 was added and plates were incubated for 60 minutes at 37° C., protected from light. Each well was sampled (150 μL) in a black 96-well plate and fluorescence was measured (Excitation: 560 nm/12 nm bandwith, Emission: 590 nm/12 nm bandwith).

[11] = system: CHO Parental cells; test: Cytotoxicity test (PrestoBlue viability), CHO parental cells; format: cell-based, Chinese Hamster; conditions: for cytotoxic effects (in words): 100 μM, both CHO parental and OCT2 cells; for Cell Viability %: CHO parental cells, after 1 minute of incubation, compound of formula (I) 100 μM, Triton X-100 1%
Description: as §5

[12] = Solubility of Metabolite 2; format: physicochemical
Text: Solubility of Metabolite 2:

[13] = single oral 10 mg/kg of compound (I)
[14] = single oral 10 mg/kg of compound A

Molecule | AUC(0-inf) [5, 13] [ng·h/mL] | AUC(0-t) [5, 13] [ng·h/mL] | Cmax [5, 13] [ng/mL] | Tmax [5, 13] [h] | MRT [5, 13] [h] | AUC(0-inf) [5, 14] [ng·h/mL] | AUC(0-t) [5, 14] [ng·h/mL] | Cmax [5, 14] [ng/mL] | Tmax [5, 14] [h] | MRT [5, 14] [h] | also measured
Cn1cc(-c2ccc3nnc(C(F)(F)c4ccc5ncccc5c4)n3n2)cn1 [Compound A, reference compound] | 62.3 ± 47.8 | 53.7 ± 40.6 | 27.6 ± 17.4 | 0.5 | 3.24 ± 0.76 | 8220 ± 5740 | 8190 ± 5740 | 1830 ± 1360 | 1 | 5.2 ± 0.9 | pre-clinical toxicity profile [1]: clean toxicity profile; pre-clinical toxicity profile [2]: clean toxicity profile; effect on renal function [3]: did affect renal function; histological analysis of kidney [3]: crystal formation with consequently degenerative and inflammatory changes in the kidney; IC50 [4]: 13.4 nM; half-life [5, 13]: 2.1 ± 0.4 h; IC50 [6]: 13.8 nM; toxicity finding in phase I, first-in-human trial [7]: unexpected renal toxicity
O=c1ccc2cc(C(F)(F)c3nnc4ccc(-c5cn[nH]c5)nn34)ccc2[nH]1 [Metabolite 1, 6-{Difluoro[6-(1H-pyrazol-4-yl)[1,2,4]triazolo[4,3-b]pyridazin-3-yl]methyl}quinolin-2(1H)-one] | 409 ± 7 |  | 57.5 ± 34.2 | 2.3 ± 1.5 | 7 ± 0.7 | 1050 ± 421 | 934 ± 336 | 126 ± 80 | 2.7 ± 1.2 | 7.8 ± 1.4 | 
C=C[C@H]1C[N@@]2CC[C@H]1C[C@@H]2[C@@H](O)c1ccnc2ccc(OC)cc12 [Quinidine, reference compound] |  |  |  |  |  |  |  |  |  |  | inhibition at 1 min, 300 μM ([8]; human, pH 7.4, inhibition of 14C-Metformin uptake): 85.5%
Triton X-100 [reference compound] |  |  |  |  |  |  |  |  |  |  | Cell Viability % [10]: 0%; cytotoxic effects (in words) [11]: viability dropped dramatically; Cell Viability % [11]: 0%

The next lines start with results.

AUC(0-inf) [5, 13] [ng·h/mL] | AUC(0-t) [5, 13] [ng·h/mL] | Cmax [5, 13] [ng/mL] | Tmax [5, 13] [h] | MRT [5, 13] [h] | AUC(0-inf) [5, 14] [ng·h/mL] | AUC(0-t) [5, 14] [ng·h/mL] | Cmax [5, 14] [ng/mL] | Tmax [5, 14] [h] | MRT [5, 14] [h] | Molecule | also measured
8570 ± 6440 | 8460 ± 6520 | 3570 ± 2320 | 0.5 | 4.6 ± 1 |  |  |  |  |  | [2H]c1ccc2cc(C(F)(F)c3nnc4ccc(-c5cnn(C)c5)nn34)ccc2n1 [Compound of formula (I)] | IC50 [8]: 670 ± 20 nM; inhibition of the 14C-Metformin uptake in OCT2 cells (in words) [8]: shows inhibition; IC50 [4]: 12 nM; IC50 [6]: 13.2 nM; formation of insoluble/less soluble aldehyde oxidase mediated metabolites [9]: down regulated; Cell Viability % [10]: 103%; cytotoxic effects (in words) [11]: no cytotoxic effects were observed; Cell Viability % [11]: 104%
152 ± 81 | 127 ± 65 | 39.8 ± 13.1 | 0.8 ± 0.3 | 3.8 ± 0.7 | 439 ± 331 | 341 ± 259 | 84.4 ± 55.9 | 1 | 5 ± 9 | Cn1cc(-c2ccc3nnc(C(F)(F)c4ccc5[nH]c(=O)ccc5c4)n3n2)cn1 [Metabolite 2, 6-{Difluoro[6-(1-methyl-1H-pyrazol-4-yl)[1,2,4]triazolo[4,3-b]pyridazin-3-yl]methyl}quinolin-2(1H)-one] | solubility ([12]; pH 4.84, aqueous buffer): 1 µg/mL; solubility ([12]; pH 7.33, aqueous buffer): 2 µg/mL; half-life [5, 14]: 3 ± 0.5 h
2360 ± 450 | 2310 ± 392 | 738 ± 447 | 1.2 ± 0.8 | 5.1 ± 0.3 |  |  |  |  |  | [2H]c1ccc2cc(C(F)(F)c3nnc4ccc(-c5cn[nH]c5)nn34)ccc2n1 [N-desmethyl metabolite 3] | half-life [5, 13]: 4.4 ± 1.9 h
 |  |  |  |  | 1510 ± 190 | 1490 ± 193 | 299 ± 146 | 1.3 ± 0.6 | 5.7 ± 0.9 | FC(F)(c1ccc2ncccc2c1)c1nnc2ccc(-c3cn[nH]c3)nn12 [N-desmethyl metabolite 4, 6-{Difluoro[6-(1H-pyrazol-4-yl)[1,2,4]triazolo[4,3-b]pyridazin-3-yl]methyl}quinoline] | 
